Patent publication US10941152B2, “Pyrazole compounds as modulators of FSHR and uses thereof” (TOCOPHERX, INC., priority 2014, dated 2021)
pEC50: −log10 of the molar value.

Target: T1, FSHR (Homo sapiens, UniProt P23945)
T1 construct: expressed in transfected cells; host or cells: CHO (Cho-FSHR-LUC-1-1-43)
T1 sequence (P23945 18-695): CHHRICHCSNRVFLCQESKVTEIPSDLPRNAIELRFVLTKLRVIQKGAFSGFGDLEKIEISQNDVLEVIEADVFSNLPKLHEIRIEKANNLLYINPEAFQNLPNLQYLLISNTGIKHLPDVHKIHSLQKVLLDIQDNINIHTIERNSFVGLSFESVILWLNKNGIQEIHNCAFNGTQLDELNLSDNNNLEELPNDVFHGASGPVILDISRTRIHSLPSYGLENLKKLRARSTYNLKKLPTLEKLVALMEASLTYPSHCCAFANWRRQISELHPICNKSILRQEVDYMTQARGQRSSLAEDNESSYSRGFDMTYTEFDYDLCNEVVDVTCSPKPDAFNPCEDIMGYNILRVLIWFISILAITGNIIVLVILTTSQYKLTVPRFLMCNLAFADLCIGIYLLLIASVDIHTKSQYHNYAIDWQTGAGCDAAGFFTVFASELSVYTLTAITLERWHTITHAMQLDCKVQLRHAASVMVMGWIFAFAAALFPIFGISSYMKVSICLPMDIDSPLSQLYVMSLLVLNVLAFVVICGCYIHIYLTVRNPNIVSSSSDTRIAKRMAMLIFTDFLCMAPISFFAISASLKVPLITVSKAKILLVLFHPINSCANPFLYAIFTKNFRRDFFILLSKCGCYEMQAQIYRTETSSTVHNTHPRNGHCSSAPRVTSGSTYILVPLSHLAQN
Assay: EC50 of cyclic AMP production in CHO FSHR cells + EC20 FSH (Assay A)
Type: cell-based
Conditions: cyclic AMP production in CHO FSHR cells + EC20 FSH (0.265 pM), HTRF
Procedure: Example 24. EC50 of cyclic AMP production in CHO FSHR cells+EC20 FSH (Assay A)
2500 Cho-FSHR-LUC-1-1-43 cells were plated per well in 5 al of phenol red free DMEM/F12+1% FBS. Cells were plated in 384 well, solid white low volume plates (Greiner 784075) by Multidrop. Cells were assayed by adding 100 al of 2×EC20 FSH/IBMX in DMEM/F12+0.1% BSA) by Multidrop to 2 al of test compound stamped in 384 well plates (compounds are diluted 1:50). The final FSH concentration was 0.265 pM, and the final IBMX concentration was 200 μM. The compound plate map was as follows: Column 1: 2 μl of DMSO; Column 2: 2 μl of DMSO; Columns 3-12 and 13-24: 2 μl of test compound, diluted 1:4 in 100% DMSO, or 2 μl of FSH, diluted 1:4 in DMEM/F12+0.1% BSA. The starting concentration for FSH was 50 nM (final concentration was 0.5 nM). Furthermore, Column 23 contained 2 μl of EC100 FSH reference (100×) (diluted in DMEM/F12+0.1% BSA) at a final concentration of 0.5 nM, and Column 24 contained 2 μl of 1 mM AS707664/2 reference compound 2. 5 μl of compound+EC20 FSH mixture were transferred to cell plates (1:2 dilution into 5 μl of cell media) The plates were incubated at 37° C. for 1 h. 10 μl of mixed HTRF (CisBio #62AM4PEC) reagents were added per well and incubated at room temperature for 1 h. The plates were read on Envision using the cAMP HTRF—low volume 384 well protocol. The readout was the calculated fluorescence ratio (665 nm/620 nm). Values given in percent (%) indicate the percental effect (response) at a certain concentration of agonist relative to the maximum response of the FSH standard.

Structure (SMILES) | pEC50
COc1cc2c(cc1-c1ccn(C)n1)-c1c(c(C(=O)N3CCS(=O)(=O)CC3(C)C)nn1-c1cc(Cl)cc(Cl)c1)CO2 [Compound 13, 4-{[1-(3,5-dichlorophenyl)-7-methoxy-8-(1-methyl-1H-pyrazol-3-yl)-1H,4H-chromeno[4,3-c]pyrazol-3-yl]carbonyl}-3,3-dimethyl-1l{6},4-thiomorpholine-1,1-dione] | 7.00 to 8.00
COc1cc2c(cc1-c1ccccn1)-c1c(c(C(=O)N3CCOCC3(C)C)nn1-c1cc(Cl)cc(Cl)c1)CO2 [Compound 11, (1-(3,5-dichlorophenyl)-7-methoxy-8-(pyridin-2-yl)-1,4-dihydrochromeno[4,3-c]pyrazol-3-yl)(3,3-dimethylmorpholino)methanone] | > 8.00
COc1cc(OC)cc(-n2nc(C(=O)N3CCOCC3(C)C)c3c2-c2cc(-c4ccccn4)c(OC)cc2OC3)c1 [Compound 47, (1-(3,5-dimethoxyphenyl)-7-methoxy-8-(pyridin-2-yl)-1,4-dihydrochromeno[4,3-c]pyrazol-3-yl)(3,3-dimethylmorpholino)methanone] | 7.00 to 8.00
COc1cc2c(cc1-c1ccn(C)n1)-c1c(c(C(=O)N3CCCC3(CO)CC(C)C)nn1-c1ccsc1)CO2 (centres unmarked) [Compound 126, (2-(hydroxymethyl)-2-isobutylpyrrolidin-1-yl)(7-methoxy-8-(1-methyl-1H-pyrazol-3-yl)-1-(thiophen-3-yl)-1,4-dihydrochromeno[4,3-c]pyrazole-3-yl)methanone] | 7.00 to 8.00
COc1cc(OC)cc(-n2nc(C(=O)N3CC[S+]([O-])CC3(C)C)c3c2-c2cc(-c4cncc(C)c4)c(OC)cc2OC3)c1 (centres unmarked) [Compound 45, (1-(3,5-dimethoxyphenyl)-7-methoxy-8-(5-methylpyridin-3-yl)-1,4-dihydrochromeno[4,3-c]pyrazol-3-yl)(S-oxo-3,3-dimethylthiomorpholino)methanone] | > 8.00
CCC1(COC)CCCN1C(=O)c1nn(-c2ccsc2)c2c1COc1cc(OC)c(-c3ccn(C)n3)cc1-2 (centres unmarked) [Compound 128, (2-ethyl-2-(methoxymethyl)pyrrolidin-1-yl)(7-methoxy-8-(1-methyl-1H-pyrazol-3-yl)-1-(thiophen-3-yl)-1,4-dihydrochromeno[4,3-c]pyrazol-3-yl)methanone] | 7.00 to 8.00
COc1cc(OC)cc(-n2nc(C(=O)N(C)C(C)(C)C)c3c2-c2cc(-c4nn(C)cc4C(N)=O)c(OC)cc2OC3)c1 [Compound 144, N-tert-butyl-8-(4-carbamoyl-1-methyl-1H-pyrazol-3-yl)-1-(3,5-dimethoxyphenyl)-7-methoxy-N-methyl-1,4-dihydrochromeno[4,3-c]pyrazole-3-carboxamide] | < 6.30
COc1cc2c(cc1CC(C)C)-c1c(c(C(=O)N(C)C(C)(C)C#N)nn1-c1ccsc1)CO2 [Compound 133, N-(2-cyanopropan-2-yl)-8-isobutyl-7-methoxy-N-methyl-1-(thiophen-3-yl)-1,4-dihydrochromeno[4,3-c]pyrazole-3-carboxamide] | > 8.00
COc1cc(OC)cc(-n2nc(C(=O)N(CCO)C(C)(C)C)c3c2-c2cc(-c4ccn(C)n4)c(OC)cc2OC3)c1 [Compound 124, N-tert-butyl-1-(3,5-dimethoxyphenyl)-N-(2-hydroxyethyl)-7-methoxy-8-(1-methyl-1H-pyrazol-3-yl)-1,4-dihydrochromeno[4,3-c]pyrazole-3-carboxamide] | 7.00 to 8.00
COc1cc2c(cc1-c1cnn(CC(O)CO)c1)-c1c(c(C(=O)N(C)C(C)(C)C)nn1-c1cc(Cl)cc(Cl)c1)CO2 (single isomer, unassigned) [Compound 192, N-tert-butyl-1-(3,5-dichlorophenyl)-8-(1-(2,3-dihydroxypropyl)-1H-pyrazol-4-yl)-7-methoxy-N-methyl-1,4-dihydrochromeno[4,3-c]pyrazole-3-carboxamide] | 6.30 to 7.00
COc1cc2c(cc1[C@H]1C[C@@H]1C(=O)O)-c1c(c(C(=O)N(C)C(C)(C)C)nn1-c1cc(F)cc(F)c1)CO2 (racemic) [Compound 205] | 7.00 to 8.00
